According to paper PMC5877874, “Prenylated phloroglucinols from Hypericum scruglii, an endemic species of Sardinia (Italy), as new dual HIV-1 inhibitors effective on HIV-1 replication” (PLoS ONE, 2018):
Where two headings read alike, the source gives them in different places.

How the values were obtained:
[1] = molecular target: T1, HIV-1 RT-associated RNase H activity (Human immunodeficiency virus type 1 group M subtype B, UniProt P04585); assay: RNase H polymerase-independent cleavage assay; assay type: biochemical; settings: for IC50: concentration required to inhibit the HIV-1 RNase H activity by 50%; for Inhibition of both HIV-1 RT-associated RNase H and RDDP functions (in words): maximum concentration tested 100 μM
T1 construct: His-tagged p66/p51 HIV-1 RT; His tag; made in house; host or cells: Escherichia coli strain M15
Experimental: (§1) His-tagged p66/p51 HIV-1 RT was expressed in Escherichia coli strain M15 as previously described. Full-length IN and LEDGF proteins were expressed in E. coli BL21 (DE3).
The HIV-1 RT-associated RNase H activity was measured in 100 μL reaction volume containing 50 mM Tris–HCl, pH 7.8; 6 mM MgCl2; 1 mM dithiothreitol (DTT); 80 mM KCl; hybrid RNA/DNA (5′-[…]-3′-fluorescein, 5′-[…]-3′-Dabcyl); and 3.8 nM RT. The reaction mixture was incubated for 1 h at 37°C, the reaction was stopped by the addition of EDTA, and products were measured with a Victor 3 (Perkin) at 490/528 nm.

[2] = molecular target: T2, HIV-1 RT-associated RDDP activity (Human immunodeficiency virus type 1 group M subtype B, UniProt P04585); assay: RDDP assay (Enz-Check Reverse Transcriptase Assay Kit); assay type: biochemical; settings: for IC50: concentration required to inhibit the HIV-1 RDDP activity by 50%
T2 construct: His-tagged p66/p51 HIV-1 RT; His tag; made in house; host or cells: Escherichia coli strain M15
Experimental: as §1
The HIV-1 RT-associated RDDP activity was measured using the Enz-Check Reverse Transcriptase Assay Kit (Life technologies, Carls- bad, California, USA), as previously described. The Yonetani-Theorell analysis was performed as previously reported.

[3] = molecular target: T3, HIV-1 IN in the presence of LEDGF/p75 (Human immunodeficiency virus type 1 group M subtype B, UniProt P04585); assay: HTRF LEDGF dependent integrase assay; assay type: biochemical; settings: for IC50: IN catalytic activities in the presence of LEDGF/p75
T3 construct: Full-length IN and LEDGF proteins were expressed in E. coli BL21 (DE3); made in house; host or cells: E. coli BL21 (DE3)
Experimental: as §1
The IN LEDGF/p75 dependent assay allowed to measure the inhibition of the 3’processing and strand transfer IN reactions in the presence of recombinant LEDGF/p75 protein, as previously described. Briefly, 50 nM IN was preincubated with increasing concentration of compounds for 1 hour at room temperature in reaction buffer containing 20 mM HEPES pH 7.5, 1 mM DTT, 1% Glycerol, 20 mM MgCl2, 0.05% Brij-35 and 0.1 mg/ml BSA. To this mixture, 9 nM DNA donor substrate (5’-[…]-Biotin-3’ annealed with 5’-[…]-Biotin3’) and 50 nM DNA acceptor substrate (5’-Cy5-[…]-3’ annealed with 5’-Cy5- […]-3’) and 50 nM LEDGF/p75 protein were added and incubated at 37°C for 90 minutes.

[4] = test system: HIV-1 virus NL(AD8); assay: Antiviral activity on HIV-1 (AD8) replication in TZM-bl cells (CPRG assay); assay type: cell-based; settings: for EC50: read-out: EC50, HIV-1 (AD8) replication
Experimental: (§2) The human TZM-bl indicator cell line was obtained from the American Type Culture Collection (Manassas, VA) and maintained at 37°C and 5% CO2 in Dulbecco's modified Eagle's medium (DMEM) containing 10% fetal bovine serum, 50 μg/mLpenicillin, and 50 μg/mL streptomycin. The HIV-1 virus NL(AD8) was titrated as follows: serial 5-fold dilutions of the virus were made in quadruplicate wells in 96-well culture plates, in a total volume of 100 μL of growth medium, for a total of 8 dilution steps. Freshly trypsinized cells (20,000 cells in 100 μL of growth medium containing 75 μg/mL DEAE-dextran) were added to each well, and the plates were incubated at 37°C in a humidified 5% CO2-95% air environment. After 48 h of incubation, the medium was removed and viral infection was quantified using a β-galactosidase (CPRG) assay (Roche). Twenty thousand TZM-bl cells/well were seeded in 96-well plates in complete DMEM supplemented with 30 μg/mL DEAE-dextran (Sigma-Aldrich). Three hundred times the 50% tissue culture infective dose (TCID50)/mL of HIV AD8 strain and seven serial dilutions (range, 40.000 nM to 625 nM) of each compound were added to the cells, as previously described. Vehicle (0.1% dimethyl sulfoxide [DMSO])-treated cells served as a negative control. […] The TZM-bl indicator cell line has an integrated copy of the β-galactosidase gene under control of the HIV-1 promoter. Β-Galactosidase expression, measured by use of a chlorophenol red/β-D-galactopyranoside (CPRG) assay (Roche) in cell lysates 48 h post-infection was used as a marker of HIV infection. The inhibitory curves were fitted by nonlinear regression, allowing for the calculation of the 50% effective concentration (EC50) using the Prism software. To evaluate the cell toxicity of the compounds, the metabolic XTT [2,3-bis-(2-methoxy-4-nitro-5-sulfophenyl)-2H-tetrazolium-5-carboxanilide] test (Sigma-Aldrich) was performed according to the manufacturer's instructions.

[5] = test system: TZM-bl cells; assay: Cell toxicity, metabolic XTT test; assay type: cell-based, human
Experimental: as §2

[6] = Cell toxicity, metabolic XTT test; assay type: cell-based, human; settings: human; TZM-bl cells, XTT; read-out: CC50, TZM-bl cell viability
Experimental: as §2

[7] = test system: env-pseudotyped HIV-1 virus (REJO4541 clone 67); assay type: cell-based; settings: TZM-bl cells, 40-fold EC50 concentration
Experimental: In TOA experiment it is of fundamental importance that only one replication cycle has been completed to avoid confounding effects derived from unwashed viruses after 1 hour of infection. […] 40000 TZM-bl cells/well in a 96-multiwell plate were infected with 1500 X the TCID50 per mL of the env-pseudotyped HIV-1 virus in complete medium supplemented with DEAE-dextran (Sigma–Aldrich, 30 mg/mL). Virus was incubated with cells for 1 h at 4°C, and unbound virus was subsequently removed by extensive and repeated washing with phosphate-buffered saline (PBS) to synchronize the replication. […] After 2 days, viral infection was quantified using a CPRG assay (Roche) and was then normalized to untreated control cells.

[8] = TZM-bl cells, 48 h post-infection
[9] = Human immunodeficiency virus 1, TZM-bl, 48 h

Molecule | IC50 [1] | IC50 [2] | IC50 [3] | EC50 [4, 8] | EC50 [4, 9] | Inhibition of both HIV-1 RT-associated RNase H and RDDP functions (in words) [1] | other results
CCOC(=O)C(=O)CC(=O)/C=C/c1cccn1Cc1ccccc1Cl [RDS 1759, reference compound] | 7.3 ± 0.1 µM |  |  |  |  |  | 
3-geranyl-1-(2'-methylpropanoyl)phloroglucinol [Compound 2] | 4.1 ± 0.1 µM | 12.3 ± 2.5 µM | 7.4 ± 0.4 µM | 8 µM |  |  | CC50 [5]: > 50 µM
C=C(C)C(O)CC/C(C)=C/Cc1c(O)cc(O)c(C(=O)C(C)CC)c1O (stereo not drawn) [Compound 3, 3-(13-hydroxygeranyl)-1-(2'-methylbutanoyl)phloroglucinol] | 9.1 ± 0.5 µM | 19.7 ± 3.5 µM | 13 ± 1 µM |  | 3.5 µM |  | CC50 [6]: > 50 µM; Time of addition after which antiviral activity is lost [7]: 4–5 hour post-infection
3-geranyl-1-(2'-methylbutanoyl)phloroglucinol [Compound 1] | 4.3 ± 0.4 µM | 25.5 ± 8.8 µM | 7.3 ± 0.3 µM | 3.5 µM |  |  | CC50 [5]: > 50 µM
C[C@@H]1O[C@@H](Oc2c(-c3ccc(O)c(O)c3)oc3cc(O)cc(O)c3c2=O)[C@H](O)[C@H](O)[C@H]1O [Compound 6, quercitrin] | 6.3 ± 1 µM | 9.7 ± 1.4 µM | 1.6 ± 0.16 µM |  | > 40 µM | active in the low micromolar range | Fold more active on HIV-1 IN activity with respect to HIV-1 RNase H function ([3]; IN versus RNase H IC50): 4 fold; Effect on HIV-1 replication (in words) ([4]; highest tested concentration, TZM-bl cells): did not exert any effect
O=C(O)c1ccc(O)c(O)c1 [Compound 5, 3,4-dihydroxybenzoic acid] | > 100 µM | > 100 µM | > 100 µM |  | > 40 µM | inactive | remaining activity at 100 µM ([1]; 100 μM compound, read-out: Percentage of control RNase H activity in the presence of compound): 100%; remaining activity at 100 µM ([2]; 100 μM compound, read-out: Percentage of control RDDP activity in the presence of compound): 85%; remaining activity at 100 µM ([3]; 100 μM compound, in the presence of LEDGF, read-out: Percentage of control IN activity in the presence of compound): 97%; HIV-1 IN inhibition (in words) ([3]; in presence of LEDGF/p75): not active
Maraviroc [reference compound] |  |  |  | 0.07 µM |  |  | 
Oc1cc(O)c(CC(O)C(O)c2ccc(O)c(O)c2)c(O)c1 [Compound 4, 1,3,5-benzentriol 2-[(2S,3R)-3-(3,4-dihydroxylphenyl)-2,3-dihydroxylpropyl]] | 93 ± 7 µM | 92 ± 10 µM | 6.4 ± 0.7 µM |  | > 40 µM | weak inhibition | 
